Test results from patent EP4578856A1, “HETEROCYCLIC COMPOUND” (Ubience Inc., priority 2022, dated 2024).

Target: ROCK2 protein (Homo sapiens, UniProt O75116)
Experiment: Degradation inducing activity of ROCK2 protein in HUVEC cells, Western blotting (Simple Western JESS)
Assay type: cell-based
Set-up: endogenous in cells; host or cells: HUVEC (ATCC CRL-1730)
Details: for inhibition at 1 µM / inhibition at 10 µM: HUVEC, 24 h; for ROCK2 protein degradation rate: 24 hours
Procedure, shortened: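 HUVEC cells treated 24 h with compound at 10 µM or 1 µM, then lysed; ROCK2 quantified by capillary Western (Simple Western JESS) using rabbit mAb D1B1, normalized to total loaded protein. Degradation rate (%) calculated relative to DMSO control set at 100%, binned A ≥75%, B 50–75%, C 25–50%, D <25%.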

ROCK2 protein, sequence (O75116 whole entry): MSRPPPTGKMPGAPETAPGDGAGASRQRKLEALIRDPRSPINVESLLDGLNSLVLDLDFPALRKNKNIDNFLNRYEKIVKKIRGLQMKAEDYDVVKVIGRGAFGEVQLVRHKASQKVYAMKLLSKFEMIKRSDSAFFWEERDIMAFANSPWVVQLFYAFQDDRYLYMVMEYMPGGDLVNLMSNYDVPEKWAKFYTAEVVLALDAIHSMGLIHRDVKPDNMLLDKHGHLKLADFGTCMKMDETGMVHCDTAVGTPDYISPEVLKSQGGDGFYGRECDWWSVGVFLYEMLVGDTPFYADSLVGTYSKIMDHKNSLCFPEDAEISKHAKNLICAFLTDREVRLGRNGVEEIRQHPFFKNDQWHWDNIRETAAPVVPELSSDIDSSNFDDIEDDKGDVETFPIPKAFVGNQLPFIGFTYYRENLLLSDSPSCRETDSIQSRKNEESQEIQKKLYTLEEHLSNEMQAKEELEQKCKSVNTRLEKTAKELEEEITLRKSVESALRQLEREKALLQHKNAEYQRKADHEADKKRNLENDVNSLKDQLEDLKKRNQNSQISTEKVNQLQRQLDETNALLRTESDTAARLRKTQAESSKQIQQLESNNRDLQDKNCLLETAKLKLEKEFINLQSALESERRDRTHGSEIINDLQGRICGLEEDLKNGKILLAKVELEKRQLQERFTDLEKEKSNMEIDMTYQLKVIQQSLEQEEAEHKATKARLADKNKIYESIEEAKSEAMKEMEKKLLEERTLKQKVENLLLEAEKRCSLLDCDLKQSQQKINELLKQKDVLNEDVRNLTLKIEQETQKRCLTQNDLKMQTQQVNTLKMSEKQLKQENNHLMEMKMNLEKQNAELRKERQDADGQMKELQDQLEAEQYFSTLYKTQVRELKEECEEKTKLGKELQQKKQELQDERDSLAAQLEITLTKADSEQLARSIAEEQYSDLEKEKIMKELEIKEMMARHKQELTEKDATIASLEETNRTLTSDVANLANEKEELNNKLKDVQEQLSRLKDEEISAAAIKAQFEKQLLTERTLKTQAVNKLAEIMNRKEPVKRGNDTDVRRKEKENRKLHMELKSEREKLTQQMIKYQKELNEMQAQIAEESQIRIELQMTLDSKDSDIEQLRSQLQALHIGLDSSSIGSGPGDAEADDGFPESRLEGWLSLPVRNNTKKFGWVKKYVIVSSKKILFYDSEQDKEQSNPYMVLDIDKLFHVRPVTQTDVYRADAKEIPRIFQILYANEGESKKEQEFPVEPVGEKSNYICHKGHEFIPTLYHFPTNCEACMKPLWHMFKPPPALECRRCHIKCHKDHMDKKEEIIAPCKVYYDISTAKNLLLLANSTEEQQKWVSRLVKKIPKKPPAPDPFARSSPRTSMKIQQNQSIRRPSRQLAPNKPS

Row | Compound | inhibition at 1 µM (degradation rate at 1 µM) [%] | inhibition at 10 µM (degradation rate at 10 µM) [%] | ROCK2 protein degradation rate (degradation rate at 1 µM) | ROCK2 protein degradation rate (degradation rate at 10 µM)
1 | C[C@@H]1CN(CC(=O)N2CC(C)(C)c3ncc(Cc4ccc(F)cc4)cc32)[C@@H](CN(C)CCOCCOCCOCCOCCOCCOCCOCCN[C@H](Cc2cccc(F)c2)C(=O)Nc2ccc(-c3ccncc3)cc2)CN1 [Example 14, (R)-27-(3-Fluorobenzyl)-1-((2R,5R)-1-(2-(6-(4-fluorobenzyl)-3,3-dimethyl-2,3-dihydro-1H-pyrrolo[3,2-b]pyridin-1-yl)-2-oxoethyl)-5-methylpiperazin-2-yl)-2-methyl-N-(4-(pyridin-4-yl)phenyl)-5,8,11,14,17,20,23-heptaoxa-2,26-diazaoctacosan-28-amide] | 25 to 50 | ≥ 75 | – | –
2 | COC[C@H]1CN[C@H](C)CN1CC(=O)N1CC(C)(C)c2nc(CN(C)CCOCCOCCOCCOCCOCCOCCNC[C@@H](C(=O)Nc3ccc4cnccc4c3)c3ccccc3)c(Cc3ccc(F)cc3)cc21 [Example 41, (S)-1-(6-(4-Fluorobenzyl)-1-(2-((2R,5R)-2-(methoxymethyl)-5-methylpiperazin-1-yl)acetyl)-3,3-dimethyl-2,3-dihydro-1H-pyrrolo[3,2-b]pyridin-5-yl)-N-(isoquinolin-6-yl)-2-methyl-25-phenyl-5,8,11,14,17,20-hexaoxa-2,23-diazahexacosan-26-amide] | 50 to 75 | ≥ 75 | – | –
3 | C[C@@H]1CN(CC(=O)N2CC(C)(C)c3ncc(Cc4ccc(F)cc4)cc32)[C@@H](CN(C)CCOCCOCCOCCOCCOCCN[C@H](Cc2cccc(F)c2)C(=O)Nc2ccc(-c3ccncc3)cc2)CN1 [Example 12, (R)-21-(3-Fluorobenzyl)-1-((2R,5R)-1-(2-(6-(4-fluorobenzyl)-3,3-dimethyl-2,3-dihydro-1H-pyrrolo[3,2-b]pyridin-1-yl)-2-oxoethyl)-5-methylpiperazin-2-yl)-2-methyl-N-(4-(pyridin-4-yl)phenyl)-5,8,11,14,17-pentaoxa-2,20-diazadocosan-22-amide] | < 25 | 25 to 50 | – | –
4 | C[C@@H]1CN(CC(=O)N2CC(C)(C)c3ncc(Cc4ccc(F)cc4)cc32)[C@@H](CN(C)CCOCCOCCOCCOCCNC[C@@H](C(=O)Nc2ccc3cnccc3c2)c2ccccc2)CN1 [Example 18, (S)-1-((2R,5R)-1-(2-(6-(4-Fluorobenzyl)-3,3-dimethyl-2,3-dihydro-1H-pyrrolo[3,2-b]pyridin-1-yl)-2-oxoethyl)-5-methylpiperazin-2-yl)-N-(isoquinolin-6-yl)-2-methyl-19-phenyl-5,8,11,14-tetraoxa-2,17-diazaicosan-20-amide] | ≥ 75 | ≥ 75 | – | –
5 | C[C@@H]1CN(CC(=O)N2CC(C)(C)c3ncc(Cc4ccc(F)cc4)cc32)[C@@H](CN(C)CCOCCOCCOCCOCCOCCOCCN[C@H](C)c2ccc(C(=O)Nc3ccncc3)cc2)CN1 [Example 6, 4-((R)-1-((2R,5R)-1-(2-(6-(4-Fluorobenzyl)-3,3-dimethyl-2,3-dihydro-1H-pyrrolo[3,2-b]pyridin-1-yl)-2-oxoethyl)-5-methylpiperazin-2-yl)-2-methyl-5,8,11,14,17,20-hexaoxa-2,23-diazapentacosan-24-yl)-N-(pyridin-4-yl)benzamide] | 50 to 75 | ≥ 75 | – | –
6 | COC[C@H]1CN[C@H](C)CN1CC(=O)N1CC(C)(C)c2ncc(Cc3cccc(OCCOCCOCCN[C@H](C)c4ccc(C(=O)Nc5ccncc5)cc4)c3)cc21 [Example 44, 4-((R)-1-((2-(2-(2-(3-((1-(2-((2R,5R)-2-(Methoxymethyl)-5-methylpiperazin-1-yl)acetyl)-3,3-dimethyl-2,3-dihydro-1H-pyrrolo[3,2-b]pyridin-6-yl)methyl)phenoxy)ethoxy)ethoxy)ethyl)amino)ethyl)-N-(pyridin-4-yl)benzamide] | 50 to 75 | ≥ 75 | – | –
7 | C[C@@H]1CN(CC(=O)N2CC(C)(C)c3ncc(Cc4ccc(F)cc4)cc32)[C@@H](CN(C)CCOCCOCCN[C@H](C)c2ccc(C(=O)Nc3ccncc3)cc2)CN1 [Example 2, 4-((R)-1-((2R,5R)-1-(2-(6-(4-Fluorobenzyl)-3,3-dimethyl-2,3-dihydro-1H-pyrrolo[3,2-b]pyridin-1-yl)-2-oxoethyl)-5-methylpiperazin-2-yl)-2-methyl-5,8-dioxa-2,11-diazatridecan-12-yl)-N-(pyridin-4-yl)benzamide] | < 25 | 50 to 75 | – | –

Continued, values first:

Row | inhibition at 1 µM (degradation rate at 1 µM) [%] | inhibition at 10 µM (degradation rate at 10 µM) [%] | ROCK2 protein degradation rate (degradation rate at 1 µM) | ROCK2 protein degradation rate (degradation rate at 10 µM) | Compound
8 | < 25 | 50 to 75 | – | – | COC[C@H]1CN[C@H](C)CN1CC(=O)N1CC(C)(C)c2ncc(Cc3ccccc3OCCOCCOCCOCCOCCN[C@H](Cc3cccc(F)c3)C(=O)Nc3ccc(-c4ccncc4)cc3)cc21 [Example 74, (R)-2-(3-Fluorobenzyl)-17-(2-((1-(2-((2R,5R)-2-(methoxymethyl)-5-methylpiperazin-1-yl)acetyl)-3,3-dimethyl-2,3-dihydro-1H-pyrrolo[3,2-b]pyridin-6-yl)methyl)phenoxy)-N-(4-(pyridin-4-yl)phenyl)-6,9,12,15-tetraoxa-3-azaheptadecanamide]
9 | < 25 | 50 to 75 | – | – | COC[C@H]1CN[C@H](C)CN1CC(=O)N1CC(C)(C)c2ncc(Cc3ccccc3OCCOCCOCCOCCOCCN[C@H](C)c3ccc(C(=O)Nc4ccncc4)cc3)cc21 [Example 67, 4-((R)-17-(2-((1-(2-((2R,5R)-2-(Methoxymethyl)-5-methylpiperazin-1-yl)acetyl)-3,3-dimethyl-2,3-dihydro-1H-pyrrolo[3,2-b]pyridin-6-yl)methyl)phenoxy)-6,9,12,15-tetraoxa-3-azaheptadecan-2-yl)-N-(pyridin-4-yl)benzamide]
10 | 25 to 50 | ≥ 75 | – | – | COC[C@H]1CN[C@H](C)CN1CC(=O)N1CC(C)(C)c2ncc(Cc3cccc(OCCOCCOCCOCCOCCOCCOCCNC[C@@H](C(=O)Nc4ccc5cnccc5c4)c4ccccc4)c3)cc21 [Example 62, (S)-N-(Isoquinolin-6-yl)-1-(3-((1-(2-((2R,5R)-2-(methoxymethyl)-5-methylpiperazin-1-yl)acetyl)-3,3-dimethyl-2,3-dihydro-1H-pyrrolo[3,2-b]pyridin-6-yl)methyl)phenoxy)-23-phenyl-3,6,9,12,15,18-hexaoxa-21-azatetracosan-24-amide]
11 | – | – | D (D < 25%) | B (75% > B ≥ 50%) | COC[C@H]1CN[C@H](C)CN1CC(=O)N1CC(C)(C)c2ncc(Cc3ccccc3OCCOCCOCCN[C@H](C)c3ccc(C(=O)Nc4ccncc4)cc3)cc21 [Example 65, 4-((R)-1-((2-(2-(2-(2-((1-(2-((2R,5R)-2-(Methoxymethyl)-5-methylpiperazin-1-yl)acetyl)-3,3-dimethyl-2,3-dihydro-1H-pyrrolo[3,2-b]pyridin-6-yl)methyl)phenoxy)ethoxy)ethoxy)ethyl)amino)ethyl)-N-(pyridin-4-yl)benzamide]
12 | ≥ 75 | – | – | – | COC[C@H]1CN[C@H](C)CN1CC(=O)N1CC(C)(C)c2ncc(Cc3ccccc3OCCOCCOCCOCCOCCOCCN[C@H](C)c3ccc(C(=O)Nc4ccncc4)cc3)cc21 [Example 68, 4-((R)-20-(2-((1-(2-((2R,5R)-2-(Methoxymethyl)-5-methylpiperazin-1-yl)acetyl)-3,3-dimethyl-2,3-dihydro-1H-pyrrolo[3,2-b]pyridin-6-yl)methyl)phenoxy)-6,9,12,15,18-pentaoxa-3-azaicosan-2-yl)-N-(pyridin-4-yl)benzamide]
13 | < 25 | ≥ 75 | – | – | COC[C@H]1CN[C@H](C)CN1CC(=O)N1CC(C)(C)c2ncc(Cc3ccccc3OCCOCCOCCOCCOCCOCCOCCOCCN[C@H](Cc3cccc(F)c3)C(=O)Nc3ccc(-c4ccncc4)cc3)cc21 [Example 77, (R)-2-(3-Fluorobenzyl)-26-(2-((1-(2-((2R,5R)-2-(methoxymethyl)-5-methylpiperazin-1-yl)acetyl)-3,3-dimethyl-2,3-dihydro-1H-pyrrolo[3,2-b]pyridin-6-yl)methyl)phenoxy)-N-(4-(pyridin-4-yl)phenyl)-6,9,12,15,18,21,24-heptaoxa-3-azahexacosanamide]
14 | ≥ 75 | ≥ 75 | – | – | COC[C@H]1CN[C@H](C)CN1CC(=O)N1CC(C)(C)c2ncc(Cc3ccccc3OCCOCCOCCOCCOCCOCCOCCOCCN[C@H](C)c3ccc(C(=O)Nc4ccncc4)cc3)cc21 [Example 70, 4-((R)-26-(2-((1-(2-((2R,5R)-2-(Methoxymethyl)-5-methylpiperazin-1-yl)acetyl)-3,3-dimethyl-2,3-dihydro-1H-pyrrolo[3,2-b]pyridin-6-yl)methyl)phenoxy)-6,9,12,15,18,21,24-heptaoxa-3-azahexacosan-2-yl)-N-(pyridin-4-yl)benzamide]
15 | 25 to 50 | < 25 | – | – | COC[C@H]1CN[C@H](C)CN1CC(=O)N1CC(C)(C)c2ncc(Cc3ccccc3OCCOCCN[C@H](Cc3cccc(F)c3)C(=O)Nc3ccc(-c4ccncc4)cc3)cc21 [Example 71, (R)-3-(3-Fluorophenyl)-2-((2-(2-(2-((1-(2-((2R,5R)-2-(methoxymethyl)-5-methylpiperazin-1-yl)acetyl)-3,3-dimethyl-2,3-dihydro-1H-pyrrolo[3,2-b]pyridin-6-yl)methyl)phenoxy)ethoxy)ethyl)amino)-N-(4-(pyridin-4-yl)phenyl)propanamide]
16 | 25 to 50 | ≥ 75 | – | – | COC[C@H]1CN[C@H](C)CN1CC(=O)N1CC(C)(C)c2ncc(Cc3cccc(OCCOCCNC[C@@H](C(=O)Nc4ccc5cnccc5c4)c4ccccc4)c3)cc21 [Example 57, (S)-N-(Isoquinolin-6-yl)-3-((2-(2-(3-((1-(2-((2R,5R)-2-(methoxymethyl)-5-methylpiperazin-1-yl)acetyl)-3,3-dimethyl-2,3-dihydro-1H-pyrrolo[3,2-b]pyridin-6-yl)methyl)phenoxy)ethoxy)ethyl)amino)-2-phenylpropanamide]
